Source: US20170152226A1, “FUNCTIONALISED AND SUBSTITUTED INDOLES AS ANTI-CANCER AGENTS” (Novogen Ltd., priority 2014, published 2017)
Read-outs that look alike come from different tables or passages of the source.

Assays:
Assay in all cases: Anti-proliferative activity, cell-titre luminescent viability assay
Assay type in all cases: cell-based
[1] = system: MDA-MB-231; details: Homo sapiens, read-out: IC50 Breast MDA-MB-231
Procedure: (§1) The ability of compounds 3501-3540 and 3542-3545 to inhibit the proliferation of cancer cells representative of neuroblastoma, melanoma, prostate cancer, colorectal cancer, non-small cell lung carcinoma, and triple negative breast cancer was assessed. Briefly, a pre-determined number of cells as calculated from cell growth assays for each of the cell lines employed were seeded into their respective culture medium (using ATCC culture parameters—http://www.atcc.org) and cultured for 24 hours at 37° C. and 5% CO2 in 96-well culture plates. Once attached, each cell line was then exposed to increasing concentrations of each respective analogue (0.03, 0.3, 3 and 30 μM for compounds in Table 1; 0.1, 0.3, 1, 3, 10 and 30 μM for compounds in Table 2), cultured for a further 72 hours and exposed to cell-titre luminescent reagent (100 μL/well) for a further 30 min) to assess for cell viability. Luminescence was captured using an EnVision multilabel reader and the data for each analogue concentration was normalized, as a percentage, to the no treatment control. For compounds 3501, 3503, 3505-08, 3512-18, 3520, 3522-24 and 3531-36, semi-log plots of Percent of Control versus concentration were prepared and IC50 determined using linear regression analysis. For compounds 3502, 3504, 3509-11, 3519, 3521, 3525-30, 3537-40 and 3542-45, cell viability was normalized to control (vehicle alone) and dose-response curves, and half maximal effective concentration (EC50) values were determined using Graph Pad Prism 6 (nonlinear regression sigmoidal dose-response variable slope).

[2] = system: SK-Mel-28; details: Homo sapiens, SK-MEL-28, 72 hours, read-out: IC50 Melanoma SK-Mel-28
Procedure: as §1

[3] = system: PC3; details: Homo sapiens, read-out: IC50 Prostate PC3
Procedure: as §1

[4] = system: DU145; details: Homo sapiens, read-out: IC50 Prostate DU145
Procedure: as §1

[5] = system: SK-N-SH; details: Homo sapiens, SK-N-SH, read-out: IC50 Neuroblastoma SK-N-SH
Procedure: as §1

[6] = system: CaCo2; details: read-out: IC50 Colorectal CaCo2
Procedure: as §1

[7] = system: A549; details: Homo sapiens, read-out: IC50 Lung (NSLC) A549
Procedure: as §1

[8] = MDA-MB-231, 72 h, 0.03, 0.3, 3 and 30 μM, linear regression of semi-log plots
[9] = 0.03, 0.3, 3 and 30 μM, linear regression of semi-log plots
[10] = PC-3, 72 h, 0.03, 0.3, 3 and 30 μM, linear regression of semi-log plots
[11] = DU-145, 72 h, 0.03, 0.3, 3 and 30 μM, linear regression of semi-log plots
[12] = 72 h, 0.03, 0.3, 3 and 30 μM, linear regression of semi-log plots
[13] = Homo sapiens, Caco-2, 72 h, 0.03, 0.3, 3 and 30 μM, linear regression of semi-log plots
[14] = A549, 72 h, 0.03, 0.3, 3 and 30 μM, linear regression of semi-log plots
[15] = MDA-MB-231, 72 h, 0.1, 0.3, 1, 3, 10 and 30 μM, nonlinear regression sigmoidal dose-response (EC50)
[16] = 0.1, 0.3, 1, 3, 10 and 30 μM, nonlinear regression sigmoidal dose-response (EC50)
[17] = PC-3, 72 h, 0.1, 0.3, 1, 3, 10 and 30 μM, nonlinear regression sigmoidal dose-response (EC50)
[18] = DU-145, 72 h, 0.1, 0.3, 1, 3, 10 and 30 μM, nonlinear regression sigmoidal dose-response (EC50)
[19] = 72 h, 0.1, 0.3, 1, 3, 10 and 30 μM, nonlinear regression sigmoidal dose-response (EC50)
[20] = Homo sapiens, Caco-2, 72 h, 0.1, 0.3, 1, 3, 10 and 30 μM, nonlinear regression sigmoidal dose-response (EC50)
[21] = A549, 72 h, 0.1, 0.3, 1, 3, 10 and 30 μM, nonlinear regression sigmoidal dose-response (EC50)

| Compound | IC50 [1, 8] [µM] | IC50 [2, 9] [µM] | IC50 [3, 10] [µM] | IC50 [4, 11] [µM] | IC50 [5, 12] [µM] | IC50 [6, 13] [µM] | IC50 [7, 14] [µM] | IC50 [1, 15] [µM] | IC50 [2, 16] [µM] | IC50 [3, 17] [µM] | IC50 [4, 18] [µM] | IC50 [5, 19] [µM] | IC50 [6, 20] [µM] | IC50 [7, 21] [µM] | IC50 ([6]; 72 hours, 0.03, 0.3, 3 and 30 μM, linear regression of semi-log plots) [µM] |
| --- | --- | --- | --- | --- | --- | --- | --- | --- | --- | --- | --- | --- | --- | --- | --- |
| Cc1c(C)n(CCCN2CCN(C)CC2)c2ccc(Nc3cccc(C(=O)N4CCN(CCc5ccccc5)CC4)c3)cc12 [Compound 3518, (3-((2,3-dimethyl-1-(3-(4-methylpiperazin-1-yl)propyl)-1H-indol-5-yl)amino)phenyl)(4-phenethylpiperazin-1-yl)methanone] | 2.1 | 2.4 | 4.1 | 3.2 | 2.3 | 2.5 | 3 | – | – | – | – | – | – | – | – |
| Cc1c(C)n(CCCN2CCN(C)CC2)c2ccc(Cc3ccc(C(=O)N4CCN(CCc5ccc(F)cc5)CC4)cc3)cc12 [Compound 3519, (4-((2,3-dimethyl-1-(3-(4-methylpiperazin-1-yl)propyl)-1H-indol-5-yl)methyl)phenyl)(4-(4-fluorophenethyl)piperazin-1-yl)methanone] | – | – | – | – | – | – | – | 5 | 2.5 | 4.9 | 4.3 | 2.6 | 5.6 | 4.4 | – |
| Cc1c(C)n(CCCN2CCN(C)CC2)c2ccc(Cc3ccc(C(=O)N4CCN(CCc5ccc6c(c5)OCO6)CC4)cc3)cc12 [Compound 3521, (4-(2-(benzo[d][1,3]dioxol-5-yl)ethyl)piperazin-1-yl)(4-((2,3-dimethyl-1-(3-(4-methylpiperazin-1-yl)propyl)-1H-indol-5-yl)methyl)phenyl)methanone] | – | – | – | – | – | – | – | 6.6 | 4.1 | 6.3 | 5.7 | 4.2 | 6 | 5.9 | – |
| Cc1c(C)n(CCCN2CCN(C)CC2)c2ccc(Cc3ccc(C(=O)N4CCN(CCc5cccc(F)c5)CC4)cc3)cc12 [Compound 3522, (4-((2,3-dimethyl-1-(3-(4-methylpiperazin-1-yl)propyl)-1H-indol-5-yl)methyl)phenyl)(4-(3-fluorophenethyl)piperazin-1-yl)methanone] | 1.3 | 1 | 2.5 | 2.4 | 2 | 3 | 1.6 | – | – | – | – | – | – | – | – |
| COc1cccc(CCN2CCN(C(=O)c3ccc(Cc4ccc5c(c4)c(C)c(C)n5CCCN4CCN(C)CC4)cc3)CC2)c1 [Compound 3523, (4-((2,3-dimethyl-1-(3-(4-methylpiperazin-1-yl)propyl)-1H-indol-5-yl)methyl)phenyl)(4-(3-methoxyphenethyl)piperazin-1-yl)methanone] | 1.1 | 0.8 | 2.4 | 2.1 | 2.1 | 3.1 | 1.4 | – | – | – | – | – | – | – | – |
| Cc1c(C)n(CCCN2CCN(C)CC2)c2ccc(Cc3ccc(C(=O)N4CCN(CCc5ccccc5)CC4)cc3)cc12 [Compound 3524, (4-((2,3-dimethyl-1-(3-(4-methylpiperazin-1-yl)propyl)-1H-indol-5-yl)methyl)phenyl)(4-phenethylpiperazin-1-yl)methanone] | 1.1 | 1.1 | 0.9 | 1.8 | 1.4 | 1.7 | 0.9 | – | – | – | – | – | – | – | – |
| Cc1c(C)n(CCCN2CCN(C)CC2)c2ccc(Oc3ccc(C(=O)N4CCN(CCc5ccc(F)cc5)CC4)cc3)cc12 [Compound 3525, (4-((2,3-dimethyl-1-(3-(4-methylpiperazin-1-yl)propyl)-1H-indol-5-yl)oxy)phenyl)(4-(4-fluorophenethyl)piperazin-1-yl)methanone] | – | – | – | – | – | – | – | 4.3 | 1.7 | 4.5 | 4.1 | 1.9 | 4.1 | 3.8 | – |
| COc1ccc(CCN2CCN(C(=O)c3ccc(Oc4ccc5c(c4)c(C)c(C)n5CCCN4CCN(C)CC4)cc3)CC2)cc1 [Compound 3526] | – | – | – | – | – | – | – | 13.4 | 4.8 | 15.6 | 9 | 4.8 | 5.3 | 3 | – |
| Cc1c(C)n(CCCN2CCN(C)CC2)c2ccc(Oc3ccc(C(=O)N4CCN(CCc5ccc6c(c5)OCO6)CC4)cc3)cc12 [Compound 3527, (4-(2-(benzo[d][1,3]dioxol-5-yl)ethyl)piperazin-1-yl)(4-((2,3-dimethyl-1-(3-(4-methylpiperazin-1-yl)propyl)-1H-indol-5-yl)oxy)phenyl)methanone] | – | – | – | – | – | – | – | 4.8 | 4.1 | 7.2 | 4.5 | 3.2 | 4.1 | 5 | – |

Results, then the compound that gave them:

| IC50 [1, 8] [µM] | IC50 [2, 9] [µM] | IC50 [3, 10] [µM] | IC50 [4, 11] [µM] | IC50 [5, 12] [µM] | IC50 [6, 13] [µM] | IC50 [7, 14] [µM] | IC50 [1, 15] [µM] | IC50 [2, 16] [µM] | IC50 [3, 17] [µM] | IC50 [4, 18] [µM] | IC50 [5, 19] [µM] | IC50 [6, 20] [µM] | IC50 [7, 21] [µM] | IC50 ([6]; 72 hours, 0.03, 0.3, 3 and 30 μM, linear regression of semi-log plots) [µM] | Compound |
| --- | --- | --- | --- | --- | --- | --- | --- | --- | --- | --- | --- | --- | --- | --- | --- |
| – | – | – | – | – | – | – | 5.9 | 3.8 | 7.3 | 5.2 | 4.3 | 4.6 | 6.6 | – | Cc1c(C)n(CCCN2CCN(C)CC2)c2ccc(Oc3ccc(C(=O)N4CCN(CCc5cccc(F)c5)CC4)cc3)cc12 [Compound 3528] |
| – | – | – | – | – | – | – | 4.5 | 2.4 | 4.8 | 4.2 | 2 | 4.2 | 4.4 | – | COc1cccc(CCN2CCN(C(=O)c3ccc(Oc4ccc5c(c4)c(C)c(C)n5CCCN4CCN(C)CC4)cc3)CC2)c1 [Compound 3529] |
| – | – | – | – | – | – | – | 2.1 | 3.9 | 4.8 | 4.5 | 1.6 | 4.3 | 2.4 | – | Cc1c(C)n(CCCN2CCN(C)CC2)c2ccc(Oc3ccc(C(=O)N4CCN(CCc5ccccc5)CC4)cc3)cc12 [Compound 3530] |
| 3.5 | 2.8 | 4.6 | 3.9 | 3.4 | 4.2 | 3.9 | – | – | – | – | – | – | – | – | Cc1c(C)n(CCCN2CCN(C)CC2)c2ccc(Nc3ccc(C(=O)N4CCN(CCc5ccc(F)cc5)CC4)cc3)cc12 [Compound 3531, (4-((2,3-dimethyl-1-(3-(4-methylpiperazin-1-yl)propyl)-1H-indol-5-yl)amino)phenyl)(4-(4-fluorophenethyl)piperazin-1-yl)methanone] |
| 1.9 | 2.7 | 4.2 | 4 | 2.3 | – | 2.2 | – | – | – | – | – | – | – | 3.1 | COc1ccc(CCN2CCN(C(=O)c3ccc(Nc4ccc5c(c4)c(C)c(C)n5CCCN4CCN(C)CC4)cc3)CC2)cc1 [Compound 3532, (4-((2,3-dimethyl-1-(3-(4-methylpiperazin-1-yl)propyl)-1H-indol-5-yl)amino)phenyl)(4-(4-methoxyphenethyl)piperazin-1-yl)methanone] |
| 4.2 | 4.8 | 3.3 | 3.7 | 3.3 | 3.9 | 3.7 | – | – | – | – | – | – | – | – | Cc1c(C)n(CCCN2CCN(C)CC2)c2ccc(Nc3ccc(C(=O)N4CCN(CCc5ccc6c(c5)OCO6)CC4)cc3)cc12 [Compound 3533, (4-(2-(benzo[d][1,3]dioxol-5-yl)ethyl)piperazin-1-yl)(4-((2,3-dimethyl-1-(3-(4-methylpiperazin-1-yl)propyl)-1H-indol-5-yl)amino)phenyl)methanone] |
